Assay results from patent US9931347B2, “Pharmaceutical compound” (IOmet Pharma Ltd., priority 2013, dated 2018).
Blank lines part the entries; values can stand above or below the molecule they belong to.

Assays:
[1] = target: T1, IDO (SKOV3 human ovarian adenocarcinoma cells, IFN-γ induced) (Homo sapiens, UniProt P14902); assay: SKOV3 Kynurenine cell based assay; settings: IDO induced by 500 ng/ml IFN-γ, 500 μM L-tryptophan, 48 hours
T1 construct: IDO expression was induced in the SKOV3 cells by the addition of 500 ng/ml IFN-γ; endogenous in cells; host or cells: SKOV3 human ovarian adenocarcinoma cells, induced with IFN-γ
T1 sequence (P14902 whole entry): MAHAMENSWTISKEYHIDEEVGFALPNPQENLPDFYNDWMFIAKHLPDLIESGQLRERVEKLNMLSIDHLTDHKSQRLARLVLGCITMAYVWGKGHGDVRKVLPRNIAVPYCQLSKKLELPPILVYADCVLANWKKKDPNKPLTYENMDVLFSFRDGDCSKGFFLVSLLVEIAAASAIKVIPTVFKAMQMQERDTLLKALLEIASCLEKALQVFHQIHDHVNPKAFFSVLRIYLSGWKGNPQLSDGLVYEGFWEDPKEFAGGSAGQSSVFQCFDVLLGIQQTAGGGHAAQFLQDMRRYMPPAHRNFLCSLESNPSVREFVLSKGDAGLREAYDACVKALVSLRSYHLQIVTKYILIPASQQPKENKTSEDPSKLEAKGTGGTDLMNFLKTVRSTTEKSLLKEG
Protocol: (§1) Exemplary compounds of the invention were prepared, and tested to determine their effect as TDO and/or IDO inhibitors. Two different assays were employed: 1. a cell-based assay for detecting the effect of test compounds on kynurenine production in two different cancer cell types. This assay utilised cancer cells which expressed either TDO or IDO and as such was used as a means of testing compound activity at these two enzymes in a cell-based context. 2. a TDO and IDO biochemical coupled assay which utilised recombinantly produced and purified TDO and IDO enzymes in combination with the enzyme formamidase. This coupled enzyme system allowed conversion of N-formylkynurenine produced by TDO or IDO activity to kynurenine which was then quantified by fluorescence following addition of Erhlich's Reagent The protocols for these are set out below.
(§2) A172 (human glioblastoma) and SKOV3 (human ovarian adenocarcinoma) cells were seeded in a 96 well plate at 30,000 or 40,000 cells per well respectively in phenol red-free RPMI supplemented with 10% FCS, 2 mM L-glutamine and 500 μM L-tryptophan. IDO expression was induced in the SKOV3 cells by the addition of 500 ng/ml IFN-γ. Cells were incubated at 37° C. with or without the addition of test compound. After 48 hours, the cells were removed by centrifugation and Erhlich's reagent was added to the supernatant.

[2] = target: T2, TDO (A172 human glioblastoma cells) (Homo sapiens, UniProt P48775); assay: A172 Kynurenine cell based assay; settings: 500 μM L-tryptophan, 48 hours, kynurenine by Erhlich's reagent
T2 construct: This assay utilised cancer cells which expressed either TDO or IDO; endogenous in cells; host or cells: A172 human glioblastoma cells
T2 sequence (P48775 whole entry): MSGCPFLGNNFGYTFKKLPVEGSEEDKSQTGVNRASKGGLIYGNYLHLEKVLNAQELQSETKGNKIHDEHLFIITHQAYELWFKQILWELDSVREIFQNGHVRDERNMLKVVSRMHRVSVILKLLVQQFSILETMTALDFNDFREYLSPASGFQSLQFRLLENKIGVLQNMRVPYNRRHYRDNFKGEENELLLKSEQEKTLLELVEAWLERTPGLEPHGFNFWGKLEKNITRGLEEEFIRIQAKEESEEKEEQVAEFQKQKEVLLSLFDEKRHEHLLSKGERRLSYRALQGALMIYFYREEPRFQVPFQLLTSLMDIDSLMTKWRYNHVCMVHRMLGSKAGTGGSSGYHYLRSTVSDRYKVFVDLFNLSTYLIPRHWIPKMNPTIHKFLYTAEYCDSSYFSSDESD
Protocol: as §1
as §2, with “supernatant. The Erhlich's reagent was incubated for 5 minutes before the absorbance was read at 490 nm.” for “supernatant.”

SMILES: CCCc1cc(C(=O)N2CCC(c3c[nH]c4cc(F)ccc34)CC2)[nH]n1 [Compound 277]
SKOV3 Kynurenine cell based assay pIC50 [1]: + (+ = pIC50 4.00-4.99) | A172 Kynurenine cell based assay pIC50 [2]: + (+ = pIC50 4.00-4.99)

SMILES: O=C(CC1CC1)N1CCC(c2c[nH]c3cc(F)ccc23)CC1 [Compound 284]
SKOV3 Kynurenine cell based assay pIC50 [1]: + (+ = pIC50 4.00-4.99) | A172 Kynurenine cell based assay pIC50 [2]: + (+ = pIC50 4.00-4.99)

SMILES: CN(C)CCOc1ccc2c(C3=CCN(S(C)(=O)=O)CC3)c[nH]c2c1 [Compound 254]
SKOV3 Kynurenine cell based assay pIC50 [1]: + (+ = pIC50 4.00-4.99) | A172 Kynurenine cell based assay pIC50 [2]: + (+ = pIC50 4.00-4.99)

SMILES: CS(=O)(=O)N1CCC(c2c[nH]c3c(Cl)cccc23)CC1 [Compound 235]
SKOV3 Kynurenine cell based assay pIC50 [1]: + (+ = pIC50 4.00-4.99)

SMILES: CC(=O)N1CC=C(c2c[nH]c3cc(F)cc(F)c23)CC1 [Compound 201]
A172 Kynurenine cell based assay pIC50 [2]: ++ (++ = pIC50 5.00-5.99)

SMILES: Fc1ccc2c(C3CCN(c4nnn[nH]4)CC3)c[nH]c2c1 [Compound 290]
A172 Kynurenine cell based assay pIC50 [2]: + (+ = pIC50 4.00-4.99)

SMILES: CS(=O)(=O)N1CC=C(c2c[nH]c3ccc(C#N)cc23)CC1 [Compound 230]
A172 Kynurenine cell based assay pIC50 [2]: ++ (++ = pIC50 5.00-5.99)

SMILES: COCC(=O)N1CCC(c2c[nH]c3cc(F)ccc23)CC1 [Compound 264]
A172 Kynurenine cell based assay pIC50 [2]: ++ (++ = pIC50 5.00-5.99)

SMILES: CN(C)CCNC(=O)N1CCC(c2c[nH]c3ccccc23)CC1 [Compound 246]
A172 Kynurenine cell based assay pIC50 [2]: + (+ = pIC50 4.00-4.99)

SMILES: CS(=O)(=O)N1CCC(C2C(=O)Nc3ccc(Cl)cc32)CC1 (stereo not drawn) [Compound 294]
SKOV3 Kynurenine cell based assay pIC50 [1]: ++ (++ = pIC50 5.00-5.99)

SMILES: CC(C)C(=O)N1CCC(C(=O)N2CCC(c3c[nH]c4cc(F)ccc34)CC2)CC1 [Compound 267]
A172 Kynurenine cell based assay pIC50 [2]: + (+ = pIC50 4.00-4.99)

SMILES: CS(=O)(=O)N1CCC(c2c[nH]c3cc(OCc4ccccc4)ccc23)CC1 [Compound 222]
SKOV3 Kynurenine cell based assay pIC50 [1]: + (+ = pIC50 4.00-4.99)

SMILES: Fc1ccc2c(C3CCN(c4ccccc4)CC3)c[nH]c2c1 [Compound 303]
A172 Kynurenine cell based assay pIC50 [2]: ++ (++ = pIC50 5.00-5.99)

SMILES: O=C(c1cnccn1)N1CCC(c2c[nH]c3cc(F)ccc23)CC1 [Compound 261]
A172 Kynurenine cell based assay pIC50 [2]: + (+ = pIC50 4.00-4.99)

SMILES: COCCNC(=O)N1CCC(c2c[nH]c3ccccc23)CC1 [Compound 212]
A172 Kynurenine cell based assay pIC50 [2]: + (+ = pIC50 4.00-4.99)

SMILES: CS(=O)(=O)N1CCC(C2C(=O)Nc3ccc(Br)cc32)CC1 (stereo not drawn) [Compound 306]
SKOV3 Kynurenine cell based assay pIC50 [1]: ++ (++ = pIC50 5.00-5.99)

SMILES: CC(=O)N1CCC(c2c[nH]c3cc(F)cc(F)c23)CC1 [Compound 202]
A172 Kynurenine cell based assay pIC50 [2]: + (+ = pIC50 4.00-4.99)

SMILES: CC(=O)N1CCC(c2c(C)[nH]c3ccccc23)CC1 [Compound 195]
SKOV3 Kynurenine cell based assay pIC50 [1]: + (+ = pIC50 4.00-4.99)

SMILES: O=S(=O)(N1CCOCC1)N1CCC(c2c[nH]c3ccccc23)CC1 [Compound 220]
A172 Kynurenine cell based assay pIC50 [2]: + (+ = pIC50 4.00-4.99)

SMILES: O=S(=O)(c1ccccc1)N1CCC(c2c[nH]c3cc(F)ccc23)CC1 [Compound 300]
A172 Kynurenine cell based assay pIC50 [2]: ++ (++ = pIC50 5.00-5.99)

SMILES: CS(=O)(=O)N1CCC(c2c[nH]c3cc(F)cc(F)c23)CC1 [Compound 216]
A172 Kynurenine cell based assay pIC50 [2]: + (+ = pIC50 4.00-4.99)

SMILES: CCN(CC)C(=O)N1CCC(c2c[nH]c3ccccc23)CC1 [Compound 211]
SKOV3 Kynurenine cell based assay pIC50 [1]: + (+ = pIC50 4.00-4.99)

SMILES: CN(C)S(=O)(=O)N1CCN(c2c[nH]c3ccccc23)CC1 [Compound 297]
A172 Kynurenine cell based assay pIC50 [2]: ++ (++ = pIC50 5.00-5.99)

SMILES: O=C(c1ccno1)N1CCC(c2c[nH]c3cc(F)ccc23)CC1 [Compound 271]
A172 Kynurenine cell based assay pIC50 [2]: + (+ = pIC50 4.00-4.99)

SMILES: CS(=O)(=O)N1CCN(c2c[nH]c3ccccc23)CC1C#N (stereo not drawn) [Compound 314]
A172 Kynurenine cell based assay pIC50 [2]: ++ (++ = pIC50 5.00-5.99)

SMILES: Fc1ccc2c(C3CCN(c4cccnc4)CC3)c[nH]c2c1 [Compound 309]
A172 Kynurenine cell based assay pIC50 [2]: ++ (++ = pIC50 5.00-5.99)

SMILES: CC(C)CN1CC(C(=O)N2CCC(c3c[nH]c4cc(F)ccc34)CC2)CC1=O (stereo not drawn) [Compound 275]
A172 Kynurenine cell based assay pIC50 [2]: + (+ = pIC50 4.00-4.99)

SMILES: O=S(=O)(CC(F)(F)F)N1CCC(c2c[nH]c3cc(F)ccc23)CC1 [Compound 287]
A172 Kynurenine cell based assay pIC50 [2]: ++ (++ = pIC50 5.00-5.99)

SMILES: c1ccc2c(N3CCn4ncnc4C3)c[nH]c2c1 [Compound 315]
A172 Kynurenine cell based assay pIC50 [2]: + (+ = pIC50 4.00-4.99)

SMILES: CS(=O)(=O)N1CCC(C2C(=O)Nc3ccc(C#N)cc32)CC1 (stereo not drawn) [Compound 312]
SKOV3 Kynurenine cell based assay pIC50 [1]: + (+ = pIC50 4.00-4.99)

Second part, the molecule after the results:

A172 Kynurenine cell based assay pIC50 [2]: + (+ = pIC50 4.00-4.99)
SMILES: Cn1cnc(C(=O)N2CCC(c3c[nH]c4cc(F)ccc34)CC2)c1 [Compound 272]

SKOV3 Kynurenine cell based assay pIC50 [1]: + (+ = pIC50 4.00-4.99) | A172 Kynurenine cell based assay pIC50 [2]: + (+ = pIC50 4.00-4.99)
SMILES: CC(=O)N1CC=C(c2c[nH]c3ccc(C(F)(F)F)cc23)CC1 [Compound 229]

A172 Kynurenine cell based assay pIC50 [2]: + (+ = pIC50 4.00-4.99)
SMILES: CS(=O)(=O)N1CC=C(c2c[nH]c3cc(C(F)(F)F)ccc23)CC1 [Compound 224]

A172 Kynurenine cell based assay pIC50 [2]: ++ (++ = pIC50 5.00-5.99)
SMILES: Cc1ccc2c(C3=CCN(S(C)(=O)=O)CC3)c[nH]c2c1 [Compound 206]

A172 Kynurenine cell based assay pIC50 [2]: + (+ = pIC50 4.00-4.99)
SMILES: O=C(c1cocn1)N1CCC(c2c[nH]c3cc(F)ccc23)CC1 [Compound 274]

A172 Kynurenine cell based assay pIC50 [2]: + (+ = pIC50 4.00-4.99)
SMILES: O=C(NCCO)N1CCC(c2c[nH]c3ccccc23)CC1 [Compound 226]

SKOV3 Kynurenine cell based assay pIC50 [1]: + (+ = pIC50 4.00-4.99)
SMILES: CC(=O)N1CC=C(c2c[nH]c3cc(C#N)ccc23)CC1 [Compound 214]

A172 Kynurenine cell based assay pIC50 [2]: + (+ = pIC50 4.00-4.99)
SMILES: CC(=O)N1CCC(c2c[nH]c3cc(C#N)ccc23)CC1 [Compound 237]

SKOV3 Kynurenine cell based assay pIC50 [1]: + (+ = pIC50 4.00-4.99)
SMILES: CS(=O)(=O)N1CCCN(c2c[nH]c3ccccc23)CC1 [Compound 302]

A172 Kynurenine cell based assay pIC50 [2]: ++ (++ = pIC50 5.00-5.99)
SMILES: CC(=O)N1CCN(c2c[nH]c3ccccc23)CC1C (stereo not drawn) [Compound 298]

A172 Kynurenine cell based assay pIC50 [2]: + (+ = pIC50 4.00-4.99)
SMILES: CC(C)C(=O)N1CCC(c2c[nH]c3cc(F)ccc23)CC1 [Compound 266]

A172 Kynurenine cell based assay pIC50 [2]: + (+ = pIC50 4.00-4.99)
SMILES: CS(=O)(=O)N1CCC(c2c[nH]c3c(F)cccc23)CC1 [Compound 194]

A172 Kynurenine cell based assay pIC50 [2]: + (+ = pIC50 4.00-4.99)
SMILES: CC(=O)N1CCN(c2c[nH]c3ccccc23)CC1C#N (stereo not drawn) [Compound 313]

A172 Kynurenine cell based assay pIC50 [2]: ++ (++ = pIC50 5.00-5.99)
SMILES: CC(=O)N1CCC(c2c[nH]c3cc(F)ccc23)CC1 [Compound 200]

A172 Kynurenine cell based assay pIC50 [2]: + (+ = pIC50 4.00-4.99)
SMILES: CCN1CC(C(=O)N2CCC(c3c[nH]c4cc(F)ccc34)CC2)CC1=O (stereo not drawn) [Compound 268]

A172 Kynurenine cell based assay pIC50 [2]: + (+ = pIC50 4.00-4.99)
SMILES: COCCNS(=O)(=O)N1CCC(c2c[nH]c3ccccc23)CC1 [Compound 219]

A172 Kynurenine cell based assay pIC50 [2]: + (+ = pIC50 4.00-4.99)
SMILES: CCNS(=O)(=O)N1CCC(c2c[nH]c3ccccc23)CC1 [Compound 258]

SKOV3 Kynurenine cell based assay pIC50 [1]: + (+ = pIC50 4.00-4.99)
SMILES: CS(=O)(=O)N1CCC(C2C(=O)Nc3ccc(C(F)(F)F)cc32)CC1 (stereo not drawn) [Compound 310]

A172 Kynurenine cell based assay pIC50 [2]: + (+ = pIC50 4.00-4.99)
SMILES: O=C(C1CCOC1)N1CCC(c2c[nH]c3cc(F)ccc23)CC1 (stereo not drawn) [Compound 262]

SKOV3 Kynurenine cell based assay pIC50 [1]: + (+ = pIC50 4.00-4.99)
SMILES: CC(=O)N1CCC(c2c[nH]c3cc(Cl)c(F)cc23)CC1 [Compound 242]

A172 Kynurenine cell based assay pIC50 [2]: ++ (++ = pIC50 5.00-5.99)
SMILES: O=C1NCC2CN(c3c[nH]c4ccccc34)CCN12 (stereo not drawn) [Compound 307]

SKOV3 Kynurenine cell based assay pIC50 [1]: + (+ = pIC50 4.00-4.99)
SMILES: CS(=O)(=O)N1CCC(=C2C(=O)Nc3ccc(Br)cc32)CC1 [Compound 305]

A172 Kynurenine cell based assay pIC50 [2]: ++ (++ = pIC50 5.00-5.99)
SMILES: CS(=O)(=O)N1CCN(c2c[nH]c3ccccc23)CC1CN (stereo not drawn) [Compound 318]
